The text below walks through data of PubChem BioAssay AID179 (DTP/NCI, 2004).

Structures are written as SMILES. pEC50, pIC50: −log10 of the molar value. Activity calls are given as the source filed them.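 The calls were made as follows: active = compounds giving half or more protection of infected cells from virus-caused growth loss, again on retest; inactive = the rest.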 Bounds are passed on as bounds.

This assay has as its system CEM cells HIV-1 protection, formazan growth assay. Description: NCI AIDS Antiviral Assay. The conditions noted are these: for pIC50: measured here: growth of uninfected CEM cells. In short, it runs like this: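 Steps: treat uninfected and HIV-1-infected human CEM cells at five drug levels; quantify growth by soluble formazan; retest any compound reaching 50% protection; classify actives from the retest.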

For `COC1/C=C/OC2(C)Oc3c(C)c(O)c4c(O)c(c(/C=N/N5C(C)CN(Cc6ccc([N+](=O)[O-])cc6)CC5C)c(O)c4c3C2=O)NC(=O)/C(C)=C\C=C\C(C)C(O)C(C)C(O)C(C)C(OC(C)=O)C1C` (configuration not stated), the pEC50 (as a rule, −log10 of the EC50, conventionally taken in molar units) was less than 3.70 and the negative logarithm of the IC50 (pIC50) – broadly, the negative decadic logarithm of the IC50, by convention in mol/L – was 5.12. For the compound `CCCCCCCCCCCCSCC12c3ccccc3C(c3ccccc31)C(C(=O)O)C2C(=O)O` (configuration not stated), the pEC50 is less than 3.70 and the negative logarithm of the IC50 (pIC50) is 4.65.

Take `[Cl][Cu+].[NH-]C(Cc1c[nH]cn1)C(=O)O` (configuration not stated): the pEC50 was less than 4.33 and the negative-log IC50 (pIC50) was 4.57. Turning to `COc1cc2oc(-c3ccc4c(c3)OCO4)c(OC)c(=O)c2c(OC)c1OC`, the pEC50 was 3.81 and the pIC50 is less than 3.70.

`CN1C(=O)/C(=N/N(c2ccccc2)c2ccccc2)c2ccccc21`: the pEC50 is less than 3.70 and the pIC50 is less than 3.70. Turning to `O=c1c2cccnc2ncn1CCN1CCCC1`, the outcome was inactive. `O=C(O)CCN(CCC(=O)O)c1ccc(/C=C2\SC(=S)NC2=O)cc1`: the pEC50 was less than 3.70 and the negative-log IC50 (pIC50) is 3.77. Consider `CC(SC(=N)N)C(=N)N` (configuration not stated), for which the pEC50 is less than 3.70 and the pIC50 is less than 3.70. Regarding `O=C(O)CCOCCCCCCCCCl`, the outcome was inactive.

`CS(=O)(=O)OCCN1CCC2(CC1)SSC1(CCN(CCOS(C)(=O)=O)CC1)S2`: the pEC50 was less than 3.70 and the pIC50 is 4.55. With `O=c1cc(CN2CCCCC2)[nH]c2c1ccc1nc(CN3CCCCC3)cc(=O)n12`, the pEC50 is less than 4.00 and the pIC50 is less than 4.00. With `CC(C)(C)[Si](C)(C)OC[C@H]1O[C@@H](n2ccc(=O)[nH]c2=O)[C@H](O[Si](C)(C)C(C)(C)C)[C@@]12N[C@H](C(=O)O)CS2`, the pEC50 was less than 3.70 and the pIC50 is 5.00. Turning to `CC1(C)c2ccccc2C(O)C12CCC(=O)CC2` (configuration not stated), the pEC50 is less than 3.70 and the negative-log IC50 (pIC50) is less than 3.70.

`O=C(OCc1ccccc1)C1CCN1C(c1ccccc1)c1ccccc1` (configuration not stated): the pEC50 is less than 4.00 and the negative logarithm of the IC50 (pIC50) is less than 4.00. Take `Nc1cc(C(=O)O)ccc1O`: the pEC50 is less than 3.70 and the pIC50 was 4.40. Consider `CCCC/C=C\CCCCCCCCCC1=C(O)C(=O)C=C(OC)C1=O`, for which the pEC50 is less than 4.26 and the pIC50 is 5.03. In the case of `COc1cc(/C=C2\C(=O)N(Cc3ccccc3)C(c3ccccc3)S2(=O)=O)cc(OC)c1OC` (configuration not stated), the pEC50 is less than 4.70 and the negative-log IC50 (pIC50) was 5.48. As to `Cc1cc2cc3n(c2nn1)N=C(Cl)CC3`, the pEC50 was less than 3.47 and the pIC50 is 5.20. In the case of `Cc1cc(-n2c(C)ccc2C)no1`, the pEC50 was less than 3.70 and the negative logarithm of the IC50 (pIC50) is less than 3.70.

For the compound `O=C1CC(=O)NP(=O)(Oc2ccccc2)N1`, the pEC50 was less than 2.98 and the pIC50 was less than 2.98. On to `OCCN1c2ccccc2Sc2ccc(Cl)cc21`, for which the pEC50 was less than 3.70 and the pIC50 is 4.21. The like results for `CC(CCOc1c2ccoc2cc2oc(=O)ccc12)C1=CC(=O)C(C)(C)O1` (configuration not stated) were, in that order, less than 3.70 and less than 3.70.

On to `CCN(CC)CCN1C(=O)c2cccc3c(N)c(OC)cc(c23)C1=O`, for which the pEC50 is less than 3.70 and the pIC50 was 5.47.

For the compound `CCOC(=O)C(CCC1OCCO1)C(C)=O` (configuration not stated), the pEC50 is less than 3.70 and the negative-log IC50 (pIC50) was less than 3.70. Turning to `COc1cccc(/C=C2\CCc3ccccc3C2=O)c1`, the pEC50 is less than 4.84 and the pIC50 is less than 4.84.

Regarding `Cc1cc(N(CCC#N)CCC#N)ccc1N=Nc1cc(Cl)ccc1Cl`, the pEC50 was less than 5.43 and the pIC50 is 5.70. With `COc1cc(OC)c(C2c3cc4c(cc3OC(N3CCCC3)C2C)OCO4)c(OC)c1` (configuration not stated), the pEC50 is less than 3.70 and the pIC50 is 5.36. `NNC(=O)C(=O)N/N=C1\CCC(=O)CC1C(=O)CCC(=O)Nc1ccc(Cl)cc1` (configuration not stated): the pEC50 is less than 4.49 and the negative-log IC50 (pIC50) is less than 4.49. Take `COc1ccc(/C=C2/CSC/C(=C/c3ccc(OC)c(OC)c3)C2=O)cc1OC`: the pEC50 is less than 5.04 and the negative-log IC50 (pIC50) was 5.31. `NC(=S)N/N=C1/C(=O)N(c2ccc(Cl)cc2Cl)C(=O)C(=O)C1c1nc2ccccc2s1` (configuration not stated): the pEC50 is less than 4.14 and the pIC50 was less than 4.14. As to `COc1ccc(/C=C2\Cc3ccccc3C2=O)cc1OC`, the pEC50 was less than 4.45 and the pIC50 is less than 4.45. As to `CCCCC1(N=[N+]=[N-])C(=O)C2C=CC=C3c4ccccc4N(C1=O)C32` (configuration not stated), the outcome was inactive. For the compound `C=CCN1C(=O)CS/C1=N\NC(=O)Cc1nc2ccccc2[nH]1`, the pEC50 was less than 3.56 and the pIC50 is less than 3.56. Consider `Nc1nc2c(C(=O)c3cccs3)nnn2c2cccc(Cl)c12`, for which the pEC50 was less than 4.94 and the pIC50 was less than 4.94.

As to `CC(C)(C)OC(=O)NC(Cc1ccc(O)cn1)C(=O)O` (configuration not stated), the pEC50 was less than 3.70 and the negative-log IC50 (pIC50) was less than 3.70.

Take `CC(=O)NC1c2ccccc2C(C)(C)C12CCC1(CC2)OCCO1` (configuration not stated): the pEC50 was less than 3.70 and the pIC50 was less than 3.70.

In the case of `CC(C)(C)OC(=O)NCCCCC(N)NC(=O)c1ccccc1` (configuration not stated), the pEC50 was less than 3.70 and the pIC50 is less than 3.70.

As to `CCOC(=O)CCCNC(=O)c1ccccc1SC(=O)CCCC[n+]1ccccc1`, the pEC50 is less than 5.70 and the pIC50 is 6.04. On to `O=c1[nH]c(=O)n(C2C=CC(CO)O2)cc1COCC(F)(F)F` (configuration not stated), for which the negative logarithm of the EC50 (pEC50) was 5.52 and the pIC50 was 3.98.

`Cn1c(=O)c(C(=O)Nc2nc(C34CC5CC(CC(C5)C3)C4)cs2)c(O)c2ccccc21`: the pEC50 was less than 4.00 and the negative-log IC50 (pIC50) was less than 4.00. In the case of `CN1CCCC2[C@@H]3CCC4=C(O)C(=O)CC[C@]4(C)C3CC[C@@]21C` (some centres not stated), the pEC50 is less than 4.13 and the pIC50 is less than 4.13.

As to `Nc1ccc(/C=C\c2ccc(N)cc2S(=O)(=O)O)c(S(=O)(=O)O)c1`, the pEC50 is less than 3.70 and the negative logarithm of the IC50 (pIC50) was less than 3.70. With `OCC(O)COc1ccc(Br)cc1` (configuration not stated), the pEC50 is less than 3.00 and the negative logarithm of the IC50 (pIC50) is 3.19. On to `NC(N)=NS(=O)(=O)c1ccc(NC(=O)c2cccc3c(Nc4ccc(S(=O)(=O)N=C(N)N)cc4)c4ccccc4nc23)cc1`, for which the pEC50 is less than 4.53 and the negative-log IC50 (pIC50) is 4.65.

For `Cc1c(/C=N/NC(=S)Nc2ccccc2)c(=O)n(-c2ccccc2)n1C`, the pEC50 was less than 3.70 and the pIC50 is less than 3.70. For the compound `O=c1[nH]c(=O)n(C2CCC(COP(=O)(O)O)O2)cc1Cc1ccccc1` (configuration not stated), the pEC50 is less than 3.33 and the pIC50 is less than 3.33. Take `COc1ccc2c3c(cnc2c1)P(C)(=O)CC3` (configuration not stated): the result was inactive.

Turning to `CC1COS(=O)N1c1ccccc1` (configuration not stated), the pEC50 was less than 3.32 and the pIC50 is less than 3.32. Consider `C=C1C(=O)OC2CC(C)C3(O)C=C(C(C)=O)C4(OC3CC12)C(=O)OC1CC(C)C2(/C=C\C(C)=O)OC2CC14` (configuration not stated), for which the pEC50 is less than 3.32 and the pIC50 is 4.09.

With `NC(CCSSCCC(N)C(=O)NCC(=O)O)C(=O)NCC(=O)O` (configuration not stated), the pEC50 was less than 4.19 and the negative logarithm of the IC50 (pIC50) is less than 4.19.

In the case of `Cn1cnc2[nH]c(=O)n(O)c(=O)c21`, the pEC50 is less than 3.70 and the negative-log IC50 (pIC50) was 4.45. `NNC1=Nc2ccccc2N=C2CCSCC21` (configuration not stated): the pEC50 was less than 3.70 and the pIC50 was 3.75. Take `O=C(CNN1C(=O)CSC1=Nc1cccc2ccccc12)c1cccc2c1Nc1ccccc1S2`: the result was inactive. For the compound `Cn1c2ccccc2c(=NNc2ccc(S(N)(=O)=O)cc2)c2ccccc21`, the pEC50 was less than 3.70 and the pIC50 is 4.76.

For `COC(=O)c1nc(N)[nH]c(=O)c1-c1ccc(Cl)cc1`, the negative logarithm of the EC50 (pEC50) was 3.60 and the pIC50 is 3.05. On to `O=C(c1ccc(NCN2C(=O)CCC2=O)cc1)c1ccc(NCN2C(=O)CCC2=O)cc1`, for which the pEC50 is less than 4.52 and the pIC50 is less than 4.52.

In the case of `O=C(O)CN1CCNCCN(CC(=O)O)CC1`, the pEC50 is less than 4.00 and the negative logarithm of the IC50 (pIC50) was 5.01.

Consider `COC(=O)C1CCC(=O)N1C(c1ccc(OC)cc1)c1cc(OC)c(OC)c(OC)c1` (configuration not stated), for which the pEC50 is less than 5.70 and the negative-log IC50 (pIC50) was 7.00. In the case of `S=C1NC(c2ccccc2)Nc2ccccc21` (configuration not stated), the pEC50 is less than 3.97 and the negative logarithm of the IC50 (pIC50) was less than 3.97. With `Cc1c(C(=O)C/C(=N\O)C(=O)Nc2cc(Cl)c(Cl)cc2Cl)[n+](=O)c2ccccc2n1[O-]`, the pEC50 was less than 4.83 and the pIC50 is less than 4.83. With `C1=CCCC=CCC1.C[PH+](C)C.C[PH+](C)C.C[PH+](C)C.[Cl-].[Ir]`, the outcome was inactive. On to `CC(C)(C)OC(=O)NS(=O)(=O)Nc1ccccc1`, for which the pEC50 was less than 3.70 and the negative logarithm of the IC50 (pIC50) is less than 3.70. On to `COc1cccc2c(Nc3ccc(S(=O)(=O)NC(C)=O)cc3)c3ccc([N+](=O)[O-])cc3nc12`, for which the pEC50 was less than 3.85 and the pIC50 is 4.02. With `Cc1ccc(N/N=c2\c3nc4ccccc4nc2n(-c2ccccc2C)c(=S)n3-c2ccc(C)cc2)cc1`, the result was inactive. With `OCCCNc1ccnc2cc(Cl)ccc12`, the pEC50 is less than 3.04 and the pIC50 is 4.09. For `COC(=O)CCC(=O)CC(=O)C1=NS(=O)(=O)c2nc(S(N)(=O)=O)c(Cl)cc2N1`, the pEC50 was 6.42 and the negative-log IC50 (pIC50) was 3.26.

As for `Clc1cccc(Cl)c1C1SCc2nc3cc4ccccc4cc3n21` (configuration not stated), the pEC50 is less than 3.70 and the pIC50 was less than 3.70. Take `Nc1nc(C[P+](c2ccccc2)(c2ccccc2)c2ccccc2)c(CCCCc2ccccc2)c(=O)[nH]1`: the pEC50 was less than 3.70 and the negative logarithm of the IC50 (pIC50) is 4.48. `N#Cc1ccc(CSc2ncnc3nc[nH]c23)cc1`: the pEC50 was less than 3.70 and the pIC50 was 4.09. Regarding `Cc1ccc(S(=O)(=O)Oc2nc3ccccc3nc2N(S(=O)(=O)c2ccc(C)cc2)S(=O)(=O)c2ccc(C)cc2)cc1`, the pEC50 was less than 3.70 and the pIC50 is 4.76. Regarding `O=S(=O)(NCCSSCCNS(=O)(=O)c1cccc2cccnc12)c1cccc2cccnc12`, the pEC50 is less than 3.70 and the pIC50 is 4.97. On to `Cc1oc2c(C)c3oc(=O)cc(C)c3cc2c1CCl`, for which the pEC50 was less than 4.70 and the pIC50 was 5.53.
